According to US9340535B2, “N-[5-(Aminosulfony1)-4-methyl-1,3-thiazol-2-yl]-N-methyl-2-[4-(2-pyridinyl)phenyl]acetamide mesylate monohydrate” (AiCuris GmbH & Co. KG, priority 2011, dated 2016):
Read-outs that look alike come from different tables or passages of the source.

Columns and labels:
Long term stability = assay type: physicochemical; conditions: in comparison to the free base form
[1] = Exposure in 26-week repeated dose toxicity study (mesylate monohydrate); assay type: in vivo; conditions: rats; for Cmax / AUC(0-t): rat, in vivo; for AUC(0-t): read-out: AUC(0-24); for Exposure ratio 26-wts/13-wts. AUC(0-24) / Exposure ratio 26-wts/13-wts. Cmax: day 1, mesylate monohydrate vs free base; for Exposure ratio 26-wts/13-wts AUC(0-24) / Exposure ratio 26-wts/13-wts Cmax: week 13, mesylate monohydrate vs free base
Experimental: The exposure of rats to N-[5-(aminosulfonyl)-4-methyl-1,3-thiazol-2-yl]-N-methyl-2-[4-(2-pyridinyl)phenyl]acetamide in a repeated dose 13-week toxicity study performed with the free base N-[5-(aminosulfonyl)-4-methyl-1,3-thiazol-2-yl]-N-methyl-2-[4-(2-pyridinyl)phenyl]acetamide (free base) was compared to the exposures observed in a 26-week repeated dose toxicity study performed with the mesylate monohydrate. In both studies, the test items were administered as 0.5% (w/v) tylose suspensions, and the concentrations were adjusted to the equivalents of free base N-[5-(aminosulfonyl)-4-methyl-1,3-thiazol-2-yl]-N-methyl-2-[4-(2-pyridinyl)phenyl]acetamide.

herpes simplex viruses = assay: Activity against herpes viruses; conditions: mainly herpes simplex viruses
[2] = Stability to dissociation: stirring for one week at room temperature
[3] = Pharmacokinetics, single and multiple dose applications in healthy volunteers; assay type: in vivo, humans
Text: The plasma concentrations in humans exceeded those reached in in vivo and in vitro experiments sufficient to effectively treat herpes simplex virus infections in various animal models and to prevent viral replication in cell culture.

[4] = Crystallinity by X-ray diffraction, microscopy; assay type: physicochemical; conditions: X-ray diffraction, microscopy
[5] = Thermal analysis and polymorphic stability (DSC, TGA); assay type: physicochemical
Experimental: Polymorphism refers to the ability of a solid material to exist in more than one crystal structure or solid form.
Upon mild heating (about 50° C. to 60° C.), the water content is reduced which would make these salts and the free base form extremely difficult to handle and to process during production and formulation. In contrast the hydrate of the mono mesylate salt is thermally stable and polymorphic stable at much higher temperatures of considerably above 100° C. as judged by TGA.
Moreover, exactly one mol equivalent water is incorporated into the crystal structure wherein the hydrogen atoms of the water molecule form hydrogen bridges with oxygen atoms of two different mesylate molecules. This well-defined position in the crystal lattice (see FIG. 3) is verified by the fact that water is released from the crystal only at high temperature, starting at 160° C.

[6] = Water solubility, solubility screening; conditions: water
[7] = Stability to decomposition: storage at 90° C. for one week
[8] = female, 10 mg/kg/day, F, 10 mg/kg/day, day 1, 26-week toxicity study
[9] = female, 50 mg/kg/day, F, 50 mg/kg/day, day 1, 26-week toxicity study
[10] = female, 250 mg/kg/day, F, 250 mg/kg/day, day 1, 26-week toxicity study
[11] = male, 10 mg/kg/day, M, 10 mg/kg/day, day 1, 26-week toxicity study
[12] = male, 50 mg/kg/day, M, 50 mg/kg/day, day 1, 26-week toxicity study
[13] = male, 250 mg/kg/day, M, 250 mg/kg/day, day 1, 26-week toxicity study
[14] = mesylate monohydrate vs free base, 50 and 250 mg/kg/day

CS(=O)(=O)O.Cc1nc(N(C)C(=O)Cc2ccc(-c3ccccn3)cc2)sc1S(N)(=O)=O.O [Mesylate monohydrate, N-[5-(aminosulfonyl)-4-methyl-1,3-thiazol-2-yl]-N-methyl-2-[4-(2-pyridinyl)-phenyl]acetamide methanesulfonate monohydrate]
Long term stability (Long term stability): superior | Cmax [1, 8]: 17.2 µg/mL | AUC(0-t) [1, 8]: 175 µg·h/mL | AUC(0-t) ([1]; female, 10 mg/kg/day, F, 10 mg/kg/day, week 13, 26-week toxicity study): 321 µg·h/mL | Cmax ([1]; female, 10 mg/kg/day, F, week 13, 26-week toxicity study): 26 µg/mL | Cmax [1, 9]: 77.8 µg/mL | AUC(0-t) [1, 9]: 913 µg·h/mL | AUC(0-t) ([1]; female, 50 mg/kg/day, F, 50 mg/kg/day, week 13, 26-week toxicity study): 1210 µg·h/mL | Cmax ([1]; female, 50 mg/kg/day, F, week 13, 26-week toxicity study): 106 µg/mL | Cmax [1, 10]: 146 µg/mL | AUC(0-t) [1, 10]: 2470 µg·h/mL | AUC(0-t) ([1]; female, 250 mg/kg/day, F, 250 mg/kg/day, week 13, 26-week toxicity study): 3580 µg·h/mL | Cmax ([1]; female, 250 mg/kg/day, F, week 13, 26-week toxicity study): 217 µg/mL | Cmax [1, 11]: 16.9 µg/mL | AUC(0-t) [1, 11]: 119 µg·h/mL | AUC(0-t) ([1]; male, 10 mg/kg/day, M, 10 mg/kg/day, week 13, 26-week toxicity study): 227 µg·h/mL | Cmax ([1]; male, 10 mg/kg/day, M, week 13, 26-week toxicity study): 21.8 µg/mL | Cmax [1, 12]: 70.3 µg/mL | AUC(0-t) [1, 12]: 634 µg·h/mL | AUC(0-t) ([1]; male, 50 mg/kg/day, M, 50 mg/kg/day, week 13, 26-week toxicity study): 959 µg·h/mL | Cmax ([1]; male, 50 mg/kg/day, M, week 13, 26-week toxicity study): 74.7 µg/mL | Cmax [1, 13]: 134 µg/mL | AUC(0-t) [1, 13]: 1980 µg·h/mL | AUC(0-t) ([1]; male, 250 mg/kg/day, M, 250 mg/kg/day, week 13, 26-week toxicity study): 2780 µg·h/mL | Cmax ([1]; male, 250 mg/kg/day, M, week 13, 26-week toxicity study): 169 µg/mL | Exposure ratio 26-wts/13-wts. AUC(0-24) ([1]; F, 10 mg/kg/day): 1.1 | Exposure ratio 26-wts/13-wts. Cmax ([1]; F, 10 mg/kg/day): 1.1 | Exposure ratio 26-wts/13-wts AUC(0-24) ([1]; F, 10 mg/kg/day): 1.5 | Exposure ratio 26-wts/13-wts Cmax ([1]; F, 10 mg/kg/day): 1.0 | Exposure ratio 26-wts/13-wts. AUC(0-24) ([1]; F, 50 mg/kg/day): 2.2 | Exposure ratio 26-wts/13-wts. Cmax ([1]; F, 50 mg/kg/day): 2.2 | Exposure ratio 26-wts/13-wts AUC(0-24) ([1]; F, 50 mg/kg/day): 2.6 | Exposure ratio 26-wts/13-wts Cmax ([1]; F, 50 mg/kg/day): 2.6 | Exposure ratio 26-wts/13-wts. AUC(0-24) ([1]; F, 250 mg/kg/day): 2.6 | Exposure ratio 26-wts/13-wts. Cmax ([1]; F, 250 mg/kg/day): 2.1 | Exposure ratio 26-wts/13-wts AUC(0-24) ([1]; F, 250 mg/kg/day): 3.1 | Exposure ratio 26-wts/13-wts Cmax ([1]; F, 250 mg/kg/day): 2.6 | Exposure ratio 26-wts/13-wts. AUC(0-24) ([1]; M, 10 mg/kg/day): 1.4 | Exposure ratio 26-wts/13-wts. Cmax ([1]; M, 10 mg/kg/day): 1.3 | Exposure ratio 26-wts/13-wts AUC(0-24) ([1]; M, 10 mg/kg/day): 1.7 | Exposure ratio 26-wts/13-wts Cmax ([1]; M, 10 mg/kg/day): 1.5 | Exposure ratio 26-wts/13-wts. AUC(0-24) ([1]; M, 50 mg/kg/day): 2.6 | Exposure ratio 26-wts/13-wts. Cmax ([1]; M, 50 mg/kg/day): 2.3 | Exposure ratio 26-wts/13-wts AUC(0-24) ([1]; M, 50 mg/kg/day): 2.9 | Exposure ratio 26-wts/13-wts Cmax ([1]; M, 50 mg/kg/day): 2.5 | Exposure ratio 26-wts/13-wts. AUC(0-24) ([1]; M, 250 mg/kg/day): 3.5 | Exposure ratio 26-wts/13-wts. Cmax ([1]; M, 250 mg/kg/day): 2.5 | Exposure ratio 26-wts/13-wts AUC(0-24) ([1]; M, 250 mg/kg/day): 4.2 | Exposure ratio 26-wts/13-wts Cmax ([1]; M, 250 mg/kg/day): 2.7 | Increase in extent of exposure, AUC [1, 14]: ≤ 4 fold | Increase in extent of exposure, Cmax [1, 14]: up to 2.7 fold | Activity against herpes viruses (herpes simplex viruses): highly active | Stability to dissociation [2]: ++ | Plasma half lives [3]: long lasting half lives | Crystallinity [4]: + | Thermal stability of hydrate [5]: stable | DSC ([5]; Differential Scanning Calorimetry): loss of water before melting | TGA ([5]; Thermogravimetric Analysis): 4.3% | Temperature at which the hydrate is thermally and polymorphic stable ([5]; as judged by TGA): above 100 °C | Temperature at which water is released from the crystal ([5]; starting temperature): ≥ 160 °C | solubility [6]: 1380 µg/mL | Stability to decomposition [7]: ++
